Experimental data: patent EP2557075A1, “New triazene compounds for treating cancer” (Trin Therapeutics GmbH, priority 2011, dated 2013)
Like-named read-outs stand apart in the source and are kept apart here.

Key:
HepG2 = assay: Intracellular metabolisation of triazenes in HepG2 cell culture (Experiment 1); assay type: in vitro ADME; conditions: HepG2, 100nmol/ml, 100% FCS, binnen 6 Stunden
Method: Es wird gezeigt, dass Verbindungen nach Beispiel 1 schneller und in größerer Menge intrazellulär metabolisiert werden als die als Vergleichssubstanzen eingesetzten Verbindungen nach Präparat 2 und 5 (entsprechend Verbindungen nach Präparat 2 und Beispiel 2a jeweils der WO 2009/004060).
Die getesteten Verbindungen wurden wie folgt gelöst: • Erfindungsgemäße Verbindung: • Beispiel 1 : in 20 mg/ml DMSO
(§1) Vergleichssubstanzen: • Präparat 2: in 50mg/ml DMSO, • Präparat 5: in 50mg/ml Wasser.
Alle drei Substanzen wurden äquimolar in einer Dosis von 100nmol/ml auf 1 x 10^7 HepG2 bzw. MCF-7-Zellen gegeben. Als Zellkulturmedium wurde 100% fötales Kälberserum (FCS) verwendet. Für den Versuch wurde der Gehalt aus Ausgangsprodukt und Metaboliten im Zellüberstand nach 1, 3 und 6 (HepG2) bzw. 1,3 und 20 Stunden (MCF-7) Inkubationszeit ermittelt. Alle drei Substanzen zeigten in Kontrollversuchen mit 100% FCS nach 40 Stunden metabolische Stabilität.

MDA-MB231 Zellen = assay: Intracellular uptake of triazenes in MDA-MB231 cells (Experiment 2); assay type: in vitro ADME; conditions: MDA-MB231, 50.000ng/ml, 50% FCS, 2, 3,5 und 20 Stunden
Method: Es wird gezeigt, dass Verbindungen nach Beispiel 1 schneller und in größerer Menge intrazellulär aufgenommen werden als die als Vergleichssubstanzen eingesetzten Verbindungen nach Präparat 2 und 5 (entsprechend Verbindungen nach Präparat 2 und Beispiel 2a jeweils der WO 2009/004060).
Die getesteten Verbindungen wurden wie folgt gelöst: • Erfindungsgemäße Verbindung: • Beispiel 1: in 20 mg/ml DMSO
as §1
Alle drei Substanzen wurden in einer Dosis von 50.000ng/ml auf 2 x 10^7 HepG2 und HCT-8 sowie 2 x 10^6-MDA-MB231 Zellen gegeben. Als Zellkulturmedium wurde 100% (MDA-MB231: 50%) fötales Kälberserum (FCS) verwendet. Zudem wurde bei den Versuchen mit HepG2 und HCT-8 noch 10.000ng/ml O6-Benzylguanin zugesetzt. Für den Versuch wurde die intrazelluläre Konzentration von Ausgangsprodukt und Metaboliten nach 2, 4 und 20 (HepG2), 2 und 3,5 und 20 Stunden (MDA-MB231) und 2,4, 24 und 48 Stunden (HCT-8) Inkubationszeit ermittelt. Alle drei Substanzen zeigten in Kontrollversuchen mit 100% FCS nach 40 Stunden metabolische Stabilität.

[1] = tested on: periphere Blutzellen (PBC); assay: Cell damage (apoptosis rate, CaspACE assay, flow cytometry) in peripheral blood cells (Experiment 5); assay type: cell-based
Description: Um die therapeutische Breite der neuen Substanzen abschätzen zu können, wurden periphere Blutzellen (PBC) und hämatologische Zellen (Nalm-6; CEM und U-937) für 24 Stunden mit unterschiedlichen Dosen verschiedener Triazenverbindungen bzw. Doxorubicin als positive Kontrolle für die hämatologischen Zelllinien inkubiert. Das Maß der Zellschädigung (Apoptoserate) wurde mittels CaspACE™ Assay (am Durchflusszytometer) bestimmt.
Verschiedene Triazene wie erfindungsgemäße Verbindungen nach Beispiel 1, TMZ sowie Verbindungen nach Präparat 2 und 5 (entsprechend Verbindungen nach Präparat 2 und Beispiel 2a jeweils der WO 2009/004060) wurden in DMSO bzw. Wasser entsprechend den Angaben in Abbildung 22 gelöst.
Periphäre Blutzellen (PBC) werden jeweils mit der IC50 für die MDA-MB231 gemäß Experiment 3 der entsprechenden Substanzen inkubiert. Es wird gezeigt, dass die erfindungsgemäße Verbindung nach Beispiel 1 nicht mehr DNA-Schädigungen in den PBC erzeugt als eine Negativkontrolle, […]

HL-60 [2] = assay: Growth inhibition (IC50) in leukaemic HL-60 cells (Experiment 7); assay type: cell-based; conditions: for IC50: Homo sapiens, HL-60, 24 Stunden
Description: Hämatologische Zellen (CEM, HL-60) wurden für 24 Stunden mit unterschiedlichen Dosen verschiedener Triazenverbindungen inkubiert, um die IC50 zu bestimmen.

[3] = Formulation trials for intravenous application (Experiment 8); assay type: physicochemical
Method: Um die Testergebnisse aus Experiment 7 in einem in-vivo Xenograft Modell zu bestätigen, wurden Formulierungsversuche mit Verbindungen nach Beispiel 1 sowie der Verbindung nach Beispiel 2 aus DE 1 793 1 15, als den wirksamsten Verbindungen aus Experiment 7, unternommen.
15mg der Verbindung nach Beispiel 1 werden in 30µL DMSO ([…]) gelöst. Diese Stocklösung wird in 270µL 1 M Na2CO3 Lösung gegeben und nur leicht geschwenkt, nicht aber mittels Ultraschallbad behandelt.
Gleichermaßen sollte eine Formulierung für Verbindungen nach Beispiel 2 aus DE 1 7 93 1 15 hergestellt werden. Hier wurden 15µL der Verbindung nach Beispiel 2 vorgelegt. Bei einer Dichte von 1,08g/ml entsprach dies 16,2mg der Verbindung nach Beispiel 2. Dazu wurden 32,4µL DMSO gegeben. […] Sodann wurden 90µL einer frisch hergestellten 1 molaren Na2CO3 Lösung vorgelegt und 10µL der Lösung der Verbindung nach Beispiel 2 hinzugegeben. […] Auch mittels Ultraschallbad konnte keine Auflösung des erzeugten Niederschlags herbeiführen.

HL-60 [4] = assay: Cell cycle analysis by flow cytometry in HL-60 (Experiment 9); assay type: cell-based
Description: Die Progression durch den Zellzyklus ist charakterisiert durch die mitotische Teilung (M-Phase) und der sich anschließenden Interphase, Die Interphase gliedert sich wiederum in die G1 -, S- und G2-Phase, In der G1-Phase beginnt die Zelle zu wachsen und es liegt ein vollständiger Chromosomensatz vor. In der S-Phase erfolgt die Replikation der DNA, wodurch an ihrem Ende der zweifache Chromosomensatz vorliegt. In der G2-Phase bereitet sich die Zelle auf die mitotische Teilung vor, an dessen Ende wieder der einfache Chromosomensatz vorhanden ist. Zusätzlich zu diesen Phasen kann eine sog. sub-G1-Phase vorliegen. Diese ist charakterisiert durch fragmentierte, apoptotische Zellen, die durch degradierte DNA charakterisiert ist. In welchem Stadium sich die Zelle befindet bzw. arretiert sein kann, lässt sich mittels Durchflusszytometrie bestimmen (Brockhoff et al. 2007; Lenz et al. 2007).
Zellkulturen von MDA-MB231 bzw. HL-60 wurden mit der IC50 (MDA-MB231) bzw. IC90 (HL-60) der beiden Test-Substanzen für bis zu 72 Stunden inkubiert und auf die Zellzyklusentwicklung hin untersucht.

In the case of `CN(C)N=Nc1ccc(C(=O)c2ccc(O)cc2)cc1` [Beispiel 1], the Ausgangssubstanz metabolisiert (HepG2) is reported as 28%, the “intrazelluläre Konzentration vs. Vergleichssubstanzen” value (MDA-MB231 Zellen) is reported as “deutlich schneller und in höheren Konzentrationen intrazellulär nachweisbar” and the “Zellschädigung (Apoptoserate) vs. Negativkontrolle” value ([1]; PBC, 24 stündige Inkubation) is reported as “nicht mehr geschädigt als durch eine Negativkontrolle”. The “% Zellen in Apoptose” value ([1]; Versuch 1 Lymphozyten, 24 Stunden incubation at the IC50 for MDA-MB231) was 8,120%, the “Wachstumshemmung in x-fach niedrigerer Konzentration” value (HL-60 [2]; CEM und HL-60, vs. Triazenverbindungen aus WO2009/004060 und Beispiel 33 aus DE 1793115) was ≤ 100 -fach and the IC50 (HL-60 [2]; mean of Exp. 1-5, read-out: IC50 Mittelwert) was 16.3 µM. It also gave an IC50 (HL-60 [2]; read-out: IC50 Exp. 1) of 12.6 µM, an IC50 (HL-60 [2]; read-out: IC50 Exp. 2) of 15.2 µM and an IC50 (HL-60 [2]; read-out: IC50 Exp. 3) of 24.2 µM. For the same compound, the IC50 (HL-60 [2]; read-out: IC50 Exp. 4) was 16 µM, the IC50 (HL-60 [2]; read-out: IC50 Exp. 5) was 13.4 µM and the “Stabilität der gebrauchsfertigen Lösung” value ([3]; 15mg in 30µL DMSO + 270µL 1 M Na2CO3, Raumtemperatur) was “unter Raumtemperatur stabil”. The “Löslichkeit in der Formulierung” value ([3]; DMSO stock solution given into 1 M Na2CO3 Lösung) was “vollständig löst”, the “stabile und verträgliche Formulierung” value ([3]; Lösungsmittel wie Cremophor, PEG400, Tween80, Poloxamer) was “nicht erreicht werden konnte” and the “Zellen in der G1 Phase” value (HL-60 [4]; HL-60, IC90, nach 24 Stunden) was less than 2%. For the same compound, the “eingesetzte Zellen tot” value (HL-60 [4]; HL-60, IC90, nach 24 Stunden) was roughly 40% and the Zellzyklus (HL-60 [4]; HL-60, incubated with IC90, nach 12 bzw. 24 Stunden) was “ausgeprägten G2 Arrest”.
